{"source": "patent US9504738B2", "about": "“Immunogenic epitopes, peptidomimetics, and anti-peptide antibodies, and methods of their use” (Ohio State Innovation Foundation, priority 2010, dated 2016)", "key": {"[1]": {"target": "T1, extracellular domain of VEGFR-2 (KDR-Fc) (Homo sapiens, UniProt P35968)", "T1 construct": "the extracellular domain of VEGFR-2(KDR-Fc) was injected as ligand; Fc; purchased R&D System", "T1 sequence (P35968 20-764 limits assumed)": "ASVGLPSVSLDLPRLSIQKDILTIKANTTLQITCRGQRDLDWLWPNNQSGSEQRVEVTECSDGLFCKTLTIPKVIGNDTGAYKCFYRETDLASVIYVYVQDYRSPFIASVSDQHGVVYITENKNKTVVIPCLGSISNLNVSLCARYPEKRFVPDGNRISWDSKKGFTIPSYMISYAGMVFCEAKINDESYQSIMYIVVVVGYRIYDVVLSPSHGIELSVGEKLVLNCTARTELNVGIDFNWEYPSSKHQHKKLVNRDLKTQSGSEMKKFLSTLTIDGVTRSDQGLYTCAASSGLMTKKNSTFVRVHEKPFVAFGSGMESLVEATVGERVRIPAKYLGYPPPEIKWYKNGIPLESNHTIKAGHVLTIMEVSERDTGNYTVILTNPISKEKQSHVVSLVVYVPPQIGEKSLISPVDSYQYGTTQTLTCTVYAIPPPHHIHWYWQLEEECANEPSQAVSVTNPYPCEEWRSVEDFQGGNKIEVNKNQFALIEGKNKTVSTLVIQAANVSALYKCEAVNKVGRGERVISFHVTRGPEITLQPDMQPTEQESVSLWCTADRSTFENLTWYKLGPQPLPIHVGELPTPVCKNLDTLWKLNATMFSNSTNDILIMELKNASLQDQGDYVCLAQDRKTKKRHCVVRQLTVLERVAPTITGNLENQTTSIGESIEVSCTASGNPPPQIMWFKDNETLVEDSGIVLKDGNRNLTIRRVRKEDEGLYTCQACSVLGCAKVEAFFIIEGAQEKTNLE", "experiment": "Surface plasmon resonance (BIAcore 3000): KDR-Fc injected over immobilized VEGF mimic peptides", "conditions": "peptide immobilized on CM5 chip, 1:1 (Langmuir) model, read-out: equilibrium binding constant (KD), binding affinity", "experimental": "Surface Plasma Resonance. Binding assays were performed using a Biacore 3000 instrument (Pharmacia Bio-sensor, Uppsala, Sweden). The experiments were performed at room temperature using HBS-EP buffer (25 mM HEPES, pH 7.4, […], 3.4 mM EDTA, and 0.005% surfactant P20). Peptides were coupled onto CM5 chip surfaces at 10 μL/min using a standard amine coupling protocol with EDC (N-ethyl-N′-[dimethylaminopropyl]carbodiimide)/NHS (N-hydroxysuccinimide). KDR-Fc (R&D System) at several concentrations in HBS-EP buffer. Was injected at a flow rate of 10 μL/min. Data analysis was performed with BIAsimulation software version 3.1 (Pharmacia Biosensor). […] To obtain measurement of anti-peptides binding affinities similar a experiment was carried out, but rhVEGF was immobilized onto CM5 chip surface and anti-peptides were injected at several concentrations.\nConformational VEGF mimic peptide binds to VEGFR-2. Binding assay was carried out using BIAcore 3000 instrument. Designed VEGF mimic peptide VEGF-P3 (NC) and (CYC) were immobilized onto chip CM5 and the extracellular domain of VEGFR-2(KDR-Fc) was injected as ligand. […] Global analysis was performed with data points fitting to a simple 1:1 (Langmuir) binding model. The equilibrium binding constant (KD) takes Ka and Kd values in consideration and represents the binding affinity. […]"}, "[2]": {"target": "T2, VEGFR-2 (Homo sapiens, UniProt P35968)", "T2 construct": "host or cells: 293/KDR cells", "T2 sequence (P35968 20-1356)": "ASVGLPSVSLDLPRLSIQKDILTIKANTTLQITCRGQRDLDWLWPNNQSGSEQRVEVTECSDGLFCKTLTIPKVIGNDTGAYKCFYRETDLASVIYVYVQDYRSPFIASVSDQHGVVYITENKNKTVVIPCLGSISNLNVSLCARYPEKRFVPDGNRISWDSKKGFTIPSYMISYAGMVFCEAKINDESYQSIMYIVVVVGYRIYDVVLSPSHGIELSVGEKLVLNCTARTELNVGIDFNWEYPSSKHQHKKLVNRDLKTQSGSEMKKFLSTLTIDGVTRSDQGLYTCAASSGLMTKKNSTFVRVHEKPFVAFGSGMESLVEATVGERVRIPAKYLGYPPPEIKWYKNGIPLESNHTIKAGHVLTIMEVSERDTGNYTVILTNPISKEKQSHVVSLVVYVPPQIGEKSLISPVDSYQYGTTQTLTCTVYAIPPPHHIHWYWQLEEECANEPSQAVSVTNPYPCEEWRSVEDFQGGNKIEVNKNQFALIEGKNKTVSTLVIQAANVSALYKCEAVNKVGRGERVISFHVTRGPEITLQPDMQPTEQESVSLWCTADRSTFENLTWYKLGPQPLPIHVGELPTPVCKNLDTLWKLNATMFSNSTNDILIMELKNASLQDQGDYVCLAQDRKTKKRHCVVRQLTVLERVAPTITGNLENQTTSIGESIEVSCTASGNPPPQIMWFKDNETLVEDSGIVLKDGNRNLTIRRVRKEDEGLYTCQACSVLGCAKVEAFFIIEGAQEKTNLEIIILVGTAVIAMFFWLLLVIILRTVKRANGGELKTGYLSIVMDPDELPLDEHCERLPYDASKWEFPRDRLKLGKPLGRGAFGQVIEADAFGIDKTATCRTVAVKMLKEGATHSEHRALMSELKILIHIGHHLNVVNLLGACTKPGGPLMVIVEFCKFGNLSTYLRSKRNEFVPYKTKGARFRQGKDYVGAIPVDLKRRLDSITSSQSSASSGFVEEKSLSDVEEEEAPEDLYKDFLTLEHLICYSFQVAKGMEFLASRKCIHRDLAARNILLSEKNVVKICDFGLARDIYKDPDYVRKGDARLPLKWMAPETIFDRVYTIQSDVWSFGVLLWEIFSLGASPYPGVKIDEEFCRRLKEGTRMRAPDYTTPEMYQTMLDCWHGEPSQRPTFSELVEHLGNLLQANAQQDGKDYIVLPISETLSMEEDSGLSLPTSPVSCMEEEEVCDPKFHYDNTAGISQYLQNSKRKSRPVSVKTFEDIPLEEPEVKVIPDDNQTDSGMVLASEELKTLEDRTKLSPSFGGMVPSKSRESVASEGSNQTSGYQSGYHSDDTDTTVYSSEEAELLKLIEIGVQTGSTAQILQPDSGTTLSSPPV", "experiment": "VEGFR-2 phosphorylation in 293/KDR cells, quantified with Human Phospho-VEGF R2/KDR DuoSet IC kit", "type": "cell-based", "conditions": "293/KDR cells stimulated with rhVEGF; control (only rhVEGF) taken as 100%", "experimental": "293/KDR cells (5×10^5 cells/well) were seeded on 6-well plates in DMEM medium supplemented with 10% FBS. After overnight incubation in starving medium (no FBS) cells were stimulated with rhVEGF for 5 min. Cells were washed in cold PBS supplemented with 1 mM sodium orthovanadate and harvested into RIPA lysis buffer (Santa Cruz Biotechnology, Santa Cruz, Calif.) and incubated on ice for 30 min and cell lysate was collected after centrifugation at 13000 rpm for 10 min. Cell lysate was kept at −80° C. until used for Western blotting detecting phosphoro-KDR and total KDR as described above.\nConformational VEGF mimic peptide prevents VEGFR-2 phosphorylation. VEGFR-2 (also known as […] or KDR) has been characterized as a tyrosine receptor type III. VEGFR-2 activation is promoted by dimerization upon VEGF binding. VEGFR-2 contains several tyrosine residues that can be phosphorylated, triggering several pathways such as proliferation, migration and survival in the endothelial cells. […] All three VEGF mimic peptides were able to decrease the level of receptor phosphorylation (FIG. 5); however, the inhibitory effect was unable to be quantified, due to the limited detection of VEGFR-2 in the Western blotting. […] The percentage of inhibition was calculated assuming the phosphorylation level of control (only rhVEGF) was 100% and the results are represented in FIG. 6B."}, "[3]": {"experiment": "Active immunization of rabbits, antibody titers by ELISA", "type": "in vivo, rabbit", "conditions": "outbred rabbits, MVF chimeric peptide", "experimental": "Active immunization and Ab purification. Mice and rabbits were immunized subcutaneously at multiple sites with a total of 1 mg (rabbits) or 100 μg (mice) of peptide dissolved in ddH2O emulsified (1:1) in Montanide ISA720 vehicle (Seppic) with 100 μg of N-acetylglucosamine-3-yl-acetyl-1-alanyl-d-isoglutamine (nor-MDP). Balb/c mice. Rabbits and mice were boosted with the respective doses at 3 week intervals. Rabbit blood was collected via the central auricular artery and sera tested for antibody titers. Anti-peptide antibodies were purified by affinity chromatography using a Protein A/G column (Pierce) from high titer antibody sera.\nELISA. Antibody titers were determined as previously described and it is defined as the reciprocal of the highest serum dilution with an absorbance of 0.2 or greater after subtracting the background.\nAntigenicity and Immunogenicity of Peptides. Earlier studies in our lab have shown that the MVF-HER-2-266 was highly immunogenic in both rabbits and mice. […] We had to do up to six immunizations with the D-amino acid peptide before we could obtain higher abs titers while with the L-amino acids only four immunization are enough to produce higher titers. We therefore used the abs raised against these peptides to test their effects on cancer cells in vitro."}, "[4]": {"target": "T3, HER-2 (Homo sapiens, UniProt P04626)", "T3 construct": "The human breast tumor cell lines BT-474 were purchased from American Type Culture Collection; host or cells: BT-474", "experiment": "HER-2 phosphorylation assay in BT-474 cells, peptides (Duoset IC human phospho-ErbB2)", "type": "cell-based", "conditions": "peptides then HRG 10 min", "experimental": "Phosphorylation assay. 1×10^6 BT-474 cells were plated in each well of a six well plate and incubated overnight at 37° C. Culture medium was removed and the cell layer washed once with PBS low score (1% FCS). Culture medium was added to the wells and plates incubated overnight. Cells were washed and 50 ug of peptides, anti-peptide Abs and controls in binding buffer (0.2% w/v BSA, RPMI 1640 medium with 10 mM HEPES (pH 7.2) was added to the wells and incubated at room temperature for 1 h. HRG (5 nM/well) was added and the incubation continued for 10 min. Binding buffer was removed and the cell layer washed once with PBS before adding 1 ml of RIPA lysis buffer (Santa Cruz Biotechnology, Santa Cruz, Calif.). Plates were rocked at 4° C. for 2 h. Lysates were removed, spun at 13000×g and supernatants collected. Protein concentration of each sample was measured by Coomassie plus protein assay reagent kit and lysates were stored at −80° C. Phosphorylation was determined by Duoset IC for human phosphor-ErbB2 according to the manufacturer's directions (RSD Systems).\nPeptide inhibition of Phosphorylation. The main mode of action of Pertuzumab is to inhibit phosphorylation. This is due to the fact that it sterically blocks the dimerization domain of HER-2 thereby preventing the formation of dimers with other HER receptors and thus interrupting downstream signaling. […]"}, "[5]": {"test_system": "HUVEC", "experiment": "Scratch wound assay (HUVEC migration)", "type": "cell-based, human", "conditions": "stimulated with 50 ng/ml rhVEGF, 16 h", "experimental": "Scratch Wound Assay. HUVEC were cultured on 0.1% gelatin coated 24-well plates. Confluent cells were incubated overnight with starving media, then they were scraped using sterilized 200-μl pipette tips and stimulated with 50 ng/ml of rhVEGF with or without VEGF mimic peptides for 16 h at 37° C. Cells were fixed and images were captured immediately at 40× magnification from light microscopy and cells that migrated to the scraped area were counted using imageJ software.\nVEGF mimic peptides inhibit cell migration in a Scratch Wound Assay. New blood vessel formation requires that the endothelial cells migrate towards the sources of growth factor. […] We used the scratch wound assay with HUVEC to observe the ability of the VEGF mimic peptides in inhibiting endothelial cell migration. […] Growth conditions (medium supplemented with 20% FBS and endothelial cell growth supplements)."}, "[6]": {"test_system": "TS/A cells (HER-2 negative)", "experiment": "Proliferation assay (MTT) of TS/A cells in presence of HRG", "type": "cell-based, mouse", "conditions": "HER-2 negative cell line", "procedure": "Proliferation assay. BT-474, SK-BR-3, MDA-468 and TS/A cells (1×10^4 were plated in 96-well flat-bottom plates overnight. Growth medium was replaced with low sera (1% FCS) medium and the cells were incubated overnight. Media were removed from the wells and replaced with low sera medium containing HER-2 and VEGF mimic peptides at concentrations ranging from 25-150 ug/ml and plates were incubated an additional 1 h at 37° C. before adding 10 ng/ml HRG in 1% medium. Plates were incubated for an additional 72 h at 37° C. before adding MTT (5 mg/ml) to each well. Plates were incubated 2 h at 37° C., and 1000 of extraction buffer (20% SDS, 50% dimethylformamide (pH 4.7)) was added to each well. Plates incubated overnight at 37° C. and read on an ELISA reader at 570 nm with 655 nm background subtraction Inhibition percentage was calculated as 100%×(Untreated cells-Peptide treated cells)/(Untreated cells).\nAntiproliferative effects of peptides. The antiproliferative effects of the peptides were tested using four different cell lines (Bt-474 and SK-BR-3: HER-2^high, MDA-468: HER-2^low and TS/A: HER-2^negative) (FIGS. 13A-13D) in the presence of HRG to activate the HER-3 receptor. […] The cells were incubated with the peptides before being exposed to HRG."}}, "note": "Ends that are not written are not given here.", "data": [{"compound": "ITMQIMRIKPHQGQHIGEMSF [VEGF 102-122]", "values": [{"measurement": "Kd", "setting": "[1]", "result": 45, "unit": "nM"}, {"measurement": "inhibition of VEGFR-2 phosphorylation", "setting": "[2]", "result": 4, "unit": "%"}]}, {"compound": "NH2-D[FSMECIMIKPHQGQHIGCQMTI]-COOH [VEGF-P4-CYC]", "values": [{"measurement": "immunogenicity (antibody titers)", "setting": "[3]", "result": "immunogenic"}, {"measurement": "inhibition rate of HER-2 phosphorylation", "setting": "[4]", "result": 39, "unit": "%"}]}, {"compound": "CC(C)c1cc(/C=C(\\C#N)C(=O)NCCCc2ccccc2)cc(C(C)C)c1O", "note": "[SU1498]", "values": [{"measurement": "inhibition of HUVEC migration", "setting": "[5]", "result": "approximately 50%"}]}, {"compound": "LHCPALVTYNTDTFESMPNPEGRYTFGASCV [HER-2-266-296]", "values": [{"measurement": "antiproliferative effect on TS/A cells", "setting": "[6]", "result": "inhibitory effects"}, {"measurement": "inhibition rate of HER-2 phosphorylation", "setting": "[4]", "result": 38, "unit": "%"}]}]}
